# Data published in patent US20130131161A1, “METHODS AND COMPOSITIONS FOR CARDIOVASCULAR DISEASES AND CONDITIONS” (priority 2009, published 2013).
# Values joined by “and” are separate entries in the source; they are usually repeats but may differ in a detail not shown here. Equal entries are not always repeated.
# Test system: Human umbilical vein endothelial cells (HUVECs)
# Experiment: eNOS activity analysis: NO, ONOO− and NO/ONOO− release from HUVECs of 50 genotyped donors in response to LA-419 (Example 2)
# Format: cell-based
# Conditions: for Fold difference NO/ONOO− (mean ± sd) / Fold difference ONOO− (mean ± sd) / Fold difference NO (mean ± sd): Caucasian, (LA-419 5 μM)/(control); for % Change NO (mean ± sd) / % Change NO/ONOO− (mean ± sd) / % Change ONOO− (mean ± sd): LA-419 1 μM vs control
# Procedure: Concurrent measurements of NO and ONOO^− were carried out with tandem electrochemical nanosensors combined into one working unit with a total diameter of 200-500 nm (FIG. 1). Their design was based on previously developed and well-characterized chemically modified carbon-fiber technology (Malinski and Taha, 1992; Lvovich and Scheeline, 1997). Each of the nanosensors was made by depositing a sensing material on the tip of a carbon fiber (length 4-5 μm, diameter 0.2-0.5 μm). The fibers were sealed with nonconductive epoxy and electrically connected to copper wires with conductive silver epoxy. A conductive film of polymeric nickel (II) tetrakis(3-methoxy-4-hydroxyphenyl)porphyrin for the NO-sensor and polymeric film of Mn (III) [2.2]paracyclophanylporphyrin was used for the ONOO^−-sensor.
# A module of NO/ONOO^− nanosensors (diameter 1-2 μm) with a platinum wire (0.1 mm) counter electrode and saturated calomel reference electrode (SCE) were applied. Differential pulse voltammetry (DPV) and amperometry were performed with a computer-based Gamry VFP600 multichannel potentiostat. DPV was used to measure the basal NO and ONOO^− concentrations, and amperometry was used to measure changes in NO and ONOO^− concentrations from its basal level with time. The DPV current at the peak potential characteristic for NO oxidation (0.65 V) and ONOO^− reduction (−0.45 V) was directly proportional to the local concentrations of these compounds in the immediate vicinity of the sensor. Linear calibration curves (current vs. concentration) were constructed for each sensor from 10 nM to 3 μM before and after measurements with aliquots of NO and ONOO^− standard solutions, respectively. The detection limit of the sensors was 1.0 nM.
# The quantification of each analyte (concentration in nM) was performed using a maximum current from amperograms and standard calibration curves. A reproducibility of measurements with nanosensors is relatively high (between 5-12%). […] The sensors were slowly raised 5±2 μm from the surface of a single endothelial cell. The eNOS agonist, calcium ionophore A23187 (CaI) as well as the different drugs were then added to the surrounding media at the cell surface with a nanoinjector that was also positioned by a computer controlled-micromanipulator.
# This example describes the genotype-specific response of the three major eNOS variants to 1 μM and 5 μM concentrations of LA-419. The three major genetic polymorphisms studied were the Glu298Asp variant (E298D or 894G→T) in exon 7 of […], the −786T→C variant in the promoter region, and the intron 4 polymorphism (VNTR). All of these variants have possible effects on the cardiovascular system and endothelial dysfunction. For this study, human umbilical vein endothelial cells (HUVECs) from 50 donors between 18 and 32 years of age were used.
# For the analysis several analysis techniques were employed. First, the effect of genotype on NO and ONOO^− release was explored within the different concentrations of LA-419 (control, 1 μM, 5 μM), calculated as the average peak release (nmols/L) of NO, ONOO^−, and NO/ONOO^−. The effect of genotype on the net increase in NO, ONOO^−, and NO/ONOO^− for LA-419 (1 μM and 5 μM) as compared to control was also measured. In addition, an analysis was done on the effect of genotype on the % change in NO, ONOO^−, and NO/ONOO^− production for LA-419 (1 μM and 5 μM), calculated as:
# % Change=[(avg. LA-419−avg. control)/(avg. control)]*100
# Finally, an evaluation was undertaken concerning the effect of genotype on the production of NO, ONOO^−, and NO/ONOO^− as the fold difference of control for LA-419 (1 μM and 5 μM), calculated as:
# Fold Difference=(avg. LA-419)/(avg. control)
# Within each calculation technique the results were compared for statistical significance using a non-parametric ANOVA Kruskal-Wallace test or a non-parametric Mann-Whitney U test. Statistical significance was set at a p-value <0.05 in a two-tailed distribution. […]
# [1] = HUVEC donor Race Caucasian/Black
compound,measurement,setting,value
"CC(=O)SC1COC2C(O[N+](=O)[O-])COC12 (stereo not drawn) [LA-419, S-(6-Nitro-oxi-hexahydro-furo[3,2-b]furan-3-1-il)thioacetate]",Fold difference NO/ONOO− (mean ± sd),"G894T G/G, n=10",1.47 (0.12)
same,Fold difference ONOO− (mean ± sd),"G894T G/G, n=10",0.81 (0.04)
same,Fold difference NO (mean ± sd),"G894T G/T & T/T, n=16",1.11 (0.05)
same,Fold difference NO/ONOO− (mean ± sd),"G894T G/T & T/T, n=16",1.35 (0.10)
same,Fold difference ONOO− (mean ± sd),"G894T G/T & T/T, n=16",0.83 (0.07)
same,Fold difference NO (mean ± sd),"G894T G/T, n=13",1.12 (0.05)
same,Fold difference NO/ONOO− (mean ± sd),"G894T G/T, n=13",1.34 (0.09)
same,Fold difference ONOO− (mean ± sd),"G894T G/T, n=13",0.83 (0.06)
same,Fold difference NO (mean ± sd),"G894T T/T, n=3",1.11 (0.07)
same,Fold difference NO/ONOO− (mean ± sd),"G894T T/T, n=3",1.39 (0.17)
same,Fold difference ONOO− (mean ± sd),"G894T T/T, n=3",0.80 (0.12)
same,Fold difference NO (mean ± sd),"Intron 4 b/a & a/a, n=6",1.16 (0.06)
same,Fold difference NO/ONOO− (mean ± sd),"Intron 4 b/a & a/a, n=6",1.39 (0.11)
same,Fold difference ONOO− (mean ± sd),"Intron 4 b/a & a/a, n=6",0.83 (0.05)
same,Fold difference NO (mean ± sd),"Intron 4 b/a, n=5",1.16 (0.06)
same,Fold difference NO/ONOO− (mean ± sd),"Intron 4 b/a, n=5",1.39 (0.12)
same,Fold difference ONOO− (mean ± sd),"Intron 4 b/a, n=5",0.83 (0.05)
same,Fold difference NO (mean ± sd),"Intron 4 b/b, n=18",1.13 (0.07)
same,Fold difference NO/ONOO− (mean ± sd),"Intron 4 b/b, n=18",1.39 (0.13)
same,Fold difference ONOO− (mean ± sd),"Intron 4 b/b, n=18",0.82 (0.06)
same,Fold difference NO (mean ± sd),"T-786C T/C & C/C, n=16",1.12 (0.06)
same,Fold difference NO/ONOO− (mean ± sd),"T-786C T/C & C/C, n=16",1.36 (0.10)
same,Fold difference ONOO− (mean ± sd),"T-786C T/C & C/C, n=16",0.82 (0.06)
same,Fold difference NO (mean ± sd),"T-786C T/C, n=15",1.13 (0.06)
same,Fold difference NO/ONOO− (mean ± sd),"T-786C T/C, n=15",1.35 (0.09)
same,Fold difference ONOO− (mean ± sd),"T-786C T/C, n=15",0.83 (0.04)
same,Fold difference NO (mean ± sd),"T-786C T/T, n=10",1.17 (0.08)
same,Fold difference NO/ONOO− (mean ± sd),"T-786C T/T, n=10",1.49 (0.14) and 1.45 (0.14)
same,Fold difference ONOO− (mean ± sd),"T-786C T/T, n=10",0.82 (0.07)
same,peak release of NO versus control,LA-419 1 μM (Table c1),smaller increase
same,ONOO− production versus control,LA-419 1 μM (Table c2),no apparent decrease
same,% Change NO (mean ± sd),[1],9.57 (6.43) %
same,% Change NO/ONOO− (mean ± sd),[1],3.77 (26.27) %
same,% Change ONOO− (mean ± sd),[1],9.37 (21.79) %
same,% Change NO (mean ± sd),HUVEC donor Race Not Reported,14.50 (2.19) %
same,% Change NO/ONOO− (mean ± sd),HUVEC donor Race Not Reported,37.24 (1.75) %
same,% Change ONOO− (mean ± sd),HUVEC donor Race Not Reported,−16.55 (2.66) %
same,% Change NO (mean ± sd),HUVEC donor alpha,−4.73 (18.81) %
same,% Change NO/ONOO− (mean ± sd),HUVEC donor alpha,−8.17 (36.37) %
same,% Change ONOO− (mean ± sd),HUVEC donor alpha,16.25 (36.48) %
same,% Change NO (mean ± sd),HUVEC donor beta,21.25 (25.58) %
same,% Change NO/ONOO− (mean ± sd),HUVEC donor beta,61.80 (74.46) %
same,% Change ONOO− (mean ± sd),HUVEC donor beta,−18.41 (17.30) %
same,% Change NO (mean ± sd),HUVEC donor delta,8.95 (0) %
same,% Change NO/ONOO− (mean ± sd),HUVEC donor delta,33.68 (0) %
same,% Change ONOO− (mean ± sd),HUVEC donor delta,−18.50 (0) %
same,% Change NO (mean ± sd),HUVEC donor gamma,11.74 (17.99) %
same,% Change NO/ONOO− (mean ± sd),HUVEC donor gamma,26.85 (45.85) %
same,% Change ONOO− (mean ± sd),HUVEC donor gamma,−6.29 (19.74) %
same,% Change NO (mean ± sd),HUVECs G894T variant G/G,7.77 (18.82) %
same,% Change NO/ONOO− (mean ± sd),HUVECs G894T variant G/G,21.83 (51.78) %
same,% Change ONOO− (mean ± sd),HUVECs G894T variant G/G,−2.10 (27.33) %
same,% Change NO (mean ± sd),HUVECs G894T variant G/T,20.99 (29.98) %
same,% Change NO/ONOO− (mean ± sd),HUVECs G894T variant G/T,50.45 (77.28) %
same,% Change ONOO− (mean ± sd),HUVECs G894T variant G/T,−9.58 (26.95) %
same,% Change NO (mean ± sd),HUVECs G894T variant T/T,8.69 (18.85) %
same,% Change NO/ONOO− (mean ± sd),HUVECs G894T variant T/T,61.97 (81.82) %
same,% Change ONOO− (mean ± sd),HUVECs G894T variant T/T,−25.44 (21.34) %
same,% Change NO (mean ± sd),HUVECs Intron 4 variant a/a,−4.57 (24.67) %
same,% Change NO/ONOO− (mean ± sd),HUVECs Intron 4 variant a/a,−3.62 (44.56) %
same,% Change ONOO− (mean ± sd),HUVECs Intron 4 variant a/a,9.62 (33.98) %
same,% Change NO (mean ± sd),HUVECs Intron 4 variant b/a,20.51 (28.08) %
same,% Change NO/ONOO− (mean ± sd),HUVECs Intron 4 variant b/a,42.92 (65.15) %
same,% Change ONOO− (mean ± sd),HUVECs Intron 4 variant b/a,−6.58 (30.92) %
same,% Change NO (mean ± sd),HUVECs Intron 4 variant b/b,13.46 (23.13) %
same,% Change NO/ONOO− (mean ± sd),HUVECs Intron 4 variant b/b,43.27 (71.09) %
same,% Change ONOO− (mean ± sd),HUVECs Intron 4 variant b/b,−10.24 (27.17) %
same,% Change NO (mean ± sd),HUVECs Intron 4 variant c/c,−26.76 (0) %
same,% Change NO/ONOO− (mean ± sd),HUVECs Intron 4 variant c/c,−26.15 (0) %
same,% Change ONOO− (mean ± sd),HUVECs Intron 4 variant c/c,−0.63 (0) %
same,% Change NO (mean ± sd),HUVECs T-786C variant C/C,1.91 (11.63) %
same,% Change NO/ONOO− (mean ± sd),HUVECs T-786C variant C/C,2.52 (35.64) %
same,% Change ONOO− (mean ± sd),HUVECs T-786C variant C/C,11.13 (43.85) %
same,% Change NO (mean ± sd),HUVECs T-786C variant T/C,17.70 (29.53) %
same,% Change NO/ONOO− (mean ± sd),HUVECs T-786C variant T/C,52.82 (77.96) %
same,% Change ONOO− (mean ± sd),HUVECs T-786C variant T/C,−12.40 (28.22) %
same,% Change NO (mean ± sd),HUVECs T-786C variant T/T,9.48 (17.79) %
same,% Change NO/ONOO− (mean ± sd),HUVECs T-786C variant T/T,25.48 (51.97) %
same,% Change ONOO− (mean ± sd),HUVECs T-786C variant T/T,−5.17 (21.75) %
same,"% Change Ratio, % Change NO/% Change ONOO− (mean ± sd)","LA-419 1 μM, HUVEC donor Race Asian",−0.48 (0)
same,"% Change Ratio, % Change NO/% Change ONOO− (mean ± sd)","LA-419 1 μM, HUVEC donor Race Black",2.81 (12.60)
same,"% Change Ratio, % Change NO/% Change ONOO− (mean ± sd)","LA-419 1 μM, HUVEC donor Race Not Reported",−0.90 (0.28)
same,Net increase over control NO (mean ± sd),"LA-419 1 μM, HUVECs G894T + T-786C Combination of all genotypes other than G/G + T/T",38.70 (72.56) nmols/L
